Results published in patent US11279690B2, “Inhibitors of glutaminyl cyclase” (VIVORIAN THERAPEUTICS N.V, priority 2017, dated 2022).

How the values were obtained:
hQPCTL = hQPCTL (Homo sapiens, UniProt Q9NXS2); experiment: Inhibitor assay, determination of Ki against the QC isoenzyme at pH 6; format: biochemical; conditions: read-out: Ki hQPCTL pH6
Method: (§1) For inhibitor testing, the sample composition was the same as described above, except of the putative inhibitory compound added. For a rapid test of QC-inhibition, samples contained 4 mM of the respective inhibitor and a substrate concentration at 1 KM. For detailed investigations of the inhibition and determination of Ki-values, influence of the inhibitor on the auxiliary enzymes was investigated first. […] The inhibitory constant was evaluated by fitting the set of progress curves to the general equation for competitive inhibition using GraFit software. The inhibitor assay was performed at two different pH levels, pH 6.0 and pH 8.0: The respective pH value in the assay solution was adjusted using conventional methods.

[1] = Pharmacokinetic parameters in mice, plasma, brain and CSF after oral administration; format: in vivo, mice (strain CD-1); conditions: mice (CD-1), 30 mg/kg orally in 0.8% Methocel
Method: Three mice (strain CD-1) were administered orally 30 mg/kg of each test compound dissolved in 0.8% Methocel. Samples were taken at the time points 10 min, 0.5, 1, 2, 4 and 8 hr after test compound administration for plasma and brain collection.
The mice were anesthetized with Isoflurane. Approximate […] of each blood sample were collected via cardiac puncture for terminal bleeding into K2EDTA tubes. Blood samples were put on ice and centrifuged at 2000 g for 5 min to obtain plasma sample within 15 minutes. CSF collection: The animals were euthanized with pure CO2 inhalation. A mid line incision was made on the neck. The muscle under the skin was cut to expose the cisterna magna. The cisterna magna was penetrated with the sharp end of a capillary and CSF was collected via capillarity.
After CSF collection, a perfusion with 7x total mouse blood volume (approximate 15 ml) of ice-cold PBS (pH 7.4) was conducted via cardiac puncture before brain collection. A mid-line incision was made in the animal scalp. The brain was removed and rinsed with cold saline. Brain was placed into a screw-top tube and weighed. Brain samples were homogenized for 2 min with 3 volumes (v/w) of PBS (pH 7.4) and then analyzed with LC-MS/MS. The brain concentration was corrected with a dilution factor of 4 as following: Brain concentration=brain homogenate conc.×4, assuming 1 g wet brain tissue equals to 1 ml.
Plasma, brain and CSF samples were stored at approximately −80° C. until analysis.
For plasma samples: An aliquot of 20 μl sample was added with 200 μ IS (Diclofenac, 200 ng/mL) in ACN, the mixture was vortexed for 2 min and centrifuged at 12.000 rpm for 5 min. 1 μl supernatant was injected for LC-MS/MS analysis.
For diluted plasma samples: An aliquot of 4 μl sample was added with 16 μl blank plasma, mixed well, added with 200 μl IS (Diclofenac, 200 ng/ml) in ACN.
For Brain samples: Brain tissue was homogenized for 2 min with 3 volumes (v/w) of PBS. An aliquot of 20 μl sample was added with 200 μl IS (Diclofenac, 200 ng/ml) in ACN, the mixture was vortexed for 2 min and centrifuged at 12000 rpm for 5 min. 1 μl supernatant was injected for LC-MS/MS analysis.
For CSF samples: The CSF sample was added with corresponding 20 fold volume of IS (Diclofenac, 200 ng/ml) in ACN, the mixture was vortexed for 2 min. 3 μl supernatant was injected for LC-MS/MS analysis.

hQC = hQC (Homo sapiens, UniProt Q16769); experiment: QC inhibitor assay, determination of Ki at pH 6.0; format: biochemical; conditions: read-out: Ki hQC pH6.0
Method: All measurements were performed with a BioAssay Reader HTS-7000Plus for microplates (Perkin Elmer) at 30° C. QC activity was evaluated fluorometrically using H-Gln-βNA. The samples consisted of 0.2 mM fluorogenic substrate, 0.25 U pyroglutamyl aminopeptidase (Unizyme, Horsholm, Denmark) in 0.2 M Tris/HCl, pH 8.0 containing 20 mM EDTA and an appropriately diluted aliquot of QC in a final volume of […]. Excitation/emission wavelengths were 320/410 nm. The assay reactions were initiated by addition of glutaminyl cyclase. QC activity was determined from a standard curve of β-naphthylamine under assay conditions. One unit is defined as the amount of QC catalyzing the formation of 1 μmol pGlu-βNA from H-Gln-βNA per minute under the described conditions.
In a second fluorometric assay, QC was activity determined using H-Gln-AMC as substrate. Reactions were carried out at 30° C. utilizing the NOVOStar reader for microplates (BMG labtechnologies). The samples consisted of varying concentrations of the fluorogenic substrate, 0.1 U pyroglutamyl aminopeptidase (Qiagen) in 0.05 M Tris/HCl, pH 8.0 containing 5 mM EDTA and an appropriately diluted aliquot of QC in a final volume of 250 μl. Excitation/emission wavelengths were 380/460 nm. The assay reactions were initiated by addition of glutaminyl cyclase. QC activity was determined from a standard curve of 7-amino-4-methylcoumarin under assay conditions. The kinetic data were evaluated using GraFit software.
This novel assay was used to determine the kinetic parameters for most of the QC substrates. […] Samples consisted of the respective QC substrate, 0.3 mM NADH, 14 mM α-Ketoglutaric acid and 30 U/ml glutamate dehydrogenase in a final volume of 250 μl. Reactions were started by addition of QC and persued by monitoring of the decrease in absorbance at 340 nm for 8-15 min.
The initial velocities were evaluated and the enzymatic activity was determined from a standard curve of ammonia under assay conditions. All samples were measured at 30° C., using either the […]luor Plus or the Sunrise (both from TECAN) reader for microplates. Kinetic data was evaluated using GraFit software.
as §1

Sequence of hQC (Q16769 29-361): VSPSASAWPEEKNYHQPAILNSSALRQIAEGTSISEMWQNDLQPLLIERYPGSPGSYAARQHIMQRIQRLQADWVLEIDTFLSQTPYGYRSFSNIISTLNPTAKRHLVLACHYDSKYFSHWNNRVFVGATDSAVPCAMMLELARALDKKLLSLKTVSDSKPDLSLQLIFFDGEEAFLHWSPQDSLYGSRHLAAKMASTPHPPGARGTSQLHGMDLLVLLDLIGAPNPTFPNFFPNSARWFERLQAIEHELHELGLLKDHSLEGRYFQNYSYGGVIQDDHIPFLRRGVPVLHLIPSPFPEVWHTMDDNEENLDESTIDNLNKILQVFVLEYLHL
Sequence of hQPCTL (Q9NXS2 whole entry): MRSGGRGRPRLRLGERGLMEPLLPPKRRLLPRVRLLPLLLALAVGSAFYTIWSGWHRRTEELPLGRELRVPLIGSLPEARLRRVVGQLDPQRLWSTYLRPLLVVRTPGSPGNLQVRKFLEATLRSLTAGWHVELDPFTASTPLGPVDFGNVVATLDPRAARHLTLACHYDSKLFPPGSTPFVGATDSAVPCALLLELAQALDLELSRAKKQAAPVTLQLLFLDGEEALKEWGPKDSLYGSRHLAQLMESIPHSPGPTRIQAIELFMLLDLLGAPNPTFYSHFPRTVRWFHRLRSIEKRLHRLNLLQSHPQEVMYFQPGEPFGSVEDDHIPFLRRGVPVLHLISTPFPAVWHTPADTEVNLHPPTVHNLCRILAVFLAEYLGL

Compound	melting point	Ki (hQPCTL)	blood-brain-barrier crossing behaviour [1]	AUC-values in the brain [1]	Ki (hQC)
O=C1C[C@@H](c2ccc(OCCC(F)F)c(F)c2F)N1c1ccc2[nH]cnc2c1 [Example 8, (S)-4-(4-(3,3-difluoropropoxy)-2,3-difluorophenyl)-1-(1H-benzo[d]imidazol-5-yl)azetidin-2-one]	148 to 153 °C				
O=C1C[C@H](c2ccccc2)N1c1ccc2nc[nH]c2c1 [Example 2, (R)-1-(1H-benzo[d]imidazol-6-yl)-4-phenylazetidin-2-one]		6.9 nM			20.8 nM
O=C1CC(c2ccccc2)N1c1ccc2[nH]cnc2c1 (racemic) [Example 1, 1-(1H-benzo[d]imidazol-5-yl)-4-phenylazetidin-2-one]		33.4 nM			170 nM
O=C1C[C@@H](c2ccc(OCCC(F)F)cc2F)N1c1ccc2[nH]cnc2c1 [Example 6, (S)-4-(4-(3,3-difluoropropoxy)-2-fluorophenyl)-1-(1H-benzo[d]imidazol-5-yl)azetidin-2-one]	137 to 142 °C				
O=C1C[C@H](c2ccc(OCCC(F)F)cc2F)N1c1ccc2[nH]cnc2c1 [Example 5, (R)-4-(4-(3,3-difluoropropoxy)-2-fluorophenyl)-1-(1H-benzo[d]imidazol-5-yl)azetidin-2-one]	150 to 155 °C	0.86 nM	good	good	3.3 nM
COc1cc(F)c(C2CC(=O)N2c2ccc3nc[nH]c3c2)c(F)c1 (racemic) [Example 4, 1-(1H-benzo[d]imidazol-5-yl)-4-(2,6-difluoro-4-methoxyphenyl)azetidin-2-one]		2.5 nM	good	good	8.6 nM
O=C1C[C@H](c2ccc(OCCC(F)F)c(F)c2F)N1c1ccc2[nH]cnc2c1 [Example 7, (R)-4-(4-(3,3-difluoropropoxy)-2,3-difluorophenyl)-1-(1H-benzo[d]imidazol-5-yl)azetidin-2-one]	165 to 170 °C	1.1 nM	good	good	2.4 nM

More lines, now with the values ahead:

melting point	Ki (hQPCTL)	blood-brain-barrier crossing behaviour [1]	AUC-values in the brain [1]	Ki (hQC)	Compound
158 to 162 °C	0.3 nM	good	good	3.6 nM	CC(F)(F)COc1cc(F)c([C@H]2CC(=O)N2c2ccc3[nH]cnc3c2)c(F)c1 [Example 15, (R)-4-(4-(2,2-difluoropropoxy)-2,6-difluorophenyl)-1-(1H-benzo[d]imidazol-5-yl)azetidin-2-one]
170 to 174 °C					CC(F)(F)COc1ccc([C@@H]2CC(=O)N2c2ccc3[nH]cnc3c2)c(F)c1F [Example 14, (S)-4-(4-(2,2-difluoropropoxy)-2,3-difluorophenyl)-1-(1H-benzo[d]imidazol-5-yl)azetidin-2-one]
203 to 208 °C					CC(F)(F)COc1ccc([C@@H]2CC(=O)N2c2ccc3[nH]cnc3c2)c(F)c1 [Example 12, (S)-4-(4-(2,2-difluoropropoxy)-2-fluorophenyl)-1-(1H-benzo[d]imidazol-5-yl)azetidin-2-one]
165 to 170 °C	1.3 nM	good	good	3.8 nM	CC(F)(F)COc1ccc([C@H]2CC(=O)N2c2ccc3[nH]cnc3c2)c(F)c1 [Example 11, (R)-4-(4-(2,2-difluoropropoxy)-2-fluorophenyl)-1-(1H-benzo[d]imidazol-5-yl)azetidin-2-one]
		good	good		O=C1C[C@H](c2c(F)cc(OCCC(F)F)cc2F)N1c1ccc2[nH]cnc2c1 [Example 9, (R)-4-(4-(3,3-difluoropropoxy)-2,6-difluorophenyl)-1-(1H-benzo[d]imidazol-5-yl)azetidin-2-one]
163 to 166 °C					CC(F)(F)COc1cc(F)c([C@@H]2CC(=O)N2c2ccc3[nH]cnc3c2)c(F)c1 [Example 16, (S)-4-(4-(2,2-difluoropropoxy)-2,6-difluorophenyl)-1-(1H-benzo[d]imidazol-5-yl)azetidin-2-one]
173 to 177 °C	2 nM	good	good	2.3 nM	CC(F)(F)COc1ccc([C@H]2CC(=O)N2c2ccc3[nH]cnc3c2)c(F)c1F [Example 13, (R)-4-(4-(2,2-difluoropropoxy)-2,3-difluorophenyl)-1-(1H-benzo[d]imidazol-5-yl)azetidin-2-one]
